Experimental data taken from BigSolDB 2.1.

O=C(O)c1ccco1
Details | solubility (mole fraction)
in acetone, 280.15 K | 0.153
in acetone, 283.25 K | 0.159
in acetone, 288.55 K | 0.172
in acetone, 293.25 K | 0.189
in acetone, 299.15 K | 0.206
in acetone, 302.95 K | 0.218
in acetone, 308.45 K | 0.237
in acetone, 315.75 K | 0.265
in ethanol, 279.35 K | 0.152
in ethanol, 282.75 K | 0.162
in ethanol, 287.35 K | 0.176
in ethanol, 294.55 K | 0.198
in ethanol, 297.65 K | 0.208
in ethanol, 303.05 K | 0.225
in ethanol, 310.15 K | 0.25
in ethanol, 313.75 K | 0.268
in ethanol, 320.75 K | 0.29
in ethanol, 325.75 K | 0.311
in ethyl acetate, 281.35 K | 0.0858
in ethyl acetate, 287.05 K | 0.0983
in ethyl acetate, 291.95 K | 0.11
in ethyl acetate, 296.55 K | 0.124
in ethyl acetate, 301.25 K | 0.137
in ethyl acetate, 305.15 K | 0.147
in ethyl acetate, 307.45 K | 0.157
in ethyl acetate, 312.15 K | 0.171
in ethyl acetate, 316.35 K | 0.191
in ethyl acetate, 322.35 K | 0.216
in methyl acetate, 280.85 K | 0.106
in methyl acetate, 284.15 K | 0.117
in methyl acetate, 287.75 K | 0.127
in methyl acetate, 291.65 K | 0.137
in methyl acetate, 295.05 K | 0.146
in methyl acetate, 298.75 K | 0.156
in methyl acetate, 302.35 K | 0.166
in methyl acetate, 308.25 K | 0.184
in methyl acetate, 316.35 K | 0.216
in methyl acetate, 319.35 K | 0.232
in n-propanol, 282.95 K | 0.138
in n-propanol, 288.35 K | 0.158
in n-propanol, 293.75 K | 0.176
in n-propanol, 297.55 K | 0.195
in n-propanol, 303.15 K | 0.208
in n-propanol, 307.65 K | 0.226
in n-propanol, 312.55 K | 0.244
in n-propanol, 315.45 K | 0.258
in n-propanol, 319.75 K | 0.273
in n-propanol, 326.15 K | 0.3
in water, 284.85 K | 0.0032
in water, 295.25 K | 0.0064
in water, 299.45 K | 0.0079
in water, 304.65 K | 0.0095
in water, 310.65 K | 0.0127
in water, 313.25 K | 0.0156
in water, 316.85 K | 0.0184
in water, 319.45 K | 0.022
in water, 321.95 K | 0.0282
in water, 324.75 K | 0.0342
